Data on 2 molecules can be found in US10724044B2, “Reversible genic male sterility in compositae” (priority 2013, dated 2020).

“Also recorded” adds a separate entry of the source.

Assay [1] has as its system homozygous mutant lettuce plant (Lactuca sativa), having a mutated version of the OPR3 gene. In words: Reversal of male sterility in homozygous OPR3 mutant lettuce by spraying young flower buds. It counts as in vivo. Conditions: for restoration of male fertility in the F2 generation: F2 of cross of NCIMB 42060 plants with wild type lettuce, treatment as in Example 1; for seed production through selfing: 200 μM spray on inflorescences from early bolting stage, versus mock-treated controls (FIG. 1). From the text: A mutant lettuce plant (Lactuca sativa), having a mutated version of the OPR3 gene, was obtained by means of chemical mutagenesis and subsequent TILLING screening of about 3,000 M2 plants.
Phenotypically this mutant lettuce plant was indistinguishable from wild type lettuce plants, when the mutation was present in a heterozygous state. […] The few pollen grains that developed in such homozygous mutants were not functional.
From the early bolting stage the inflorescences were sprayed 5 times per week, for a total of 3 weeks.

Assay [2] deals with homozygous mutant endive plant (Cichorium endivia), having a mutated version of the OPR3 gene. As to the kind of experiment: Reversal of male sterility in homozygous OPR3 mutant endive by treating young flower buds. It counts as in vivo. The note with it: for restoration of male fertility in the F2 generation: F2 of cross of endive plants of the invention with wild type endive, treatment as in Example 3; for flower colour of flowers developed from treated buds: homozygous mutants (pale flowers untreated), about 3.5 months; for flower colour of flowers developed from treated buds / male fertility (functional pollen, seed set through self-pollination): 200 μM (0.2 mM) with 0.025% Zipper surfactant sprayed daily on young flower buds; for male fertility (functional pollen, seed set through self-pollination): homozygous mutants, controls remained male sterile. From the text:
A mutant endive plant (Cichorium endivia), having a mutated version of the OPR3 gene, was obtained by means of chemical mutagenesis and subsequent TILLING screening of about 10,000 M2 plants.
Phenotypically this mutant endive plant was indistinguishable from wild type endive plants, when the mutation was present in a heterozygous state. […] The pollen grains that developed in such homozygous mutants were unable to germinate and therefore dysfunctional.
Blue was the wild type flower colour in this endive background.

The subject of assay [3] is Arabidopsis thaliana with mutations in the OPR3 gene. Conditions: Arabidopsis OPR3 mutants, flower buds treated; cited from earlier work.

In the case of `CC/C=C\CC1C(=O)CCC1CC(=O)OC` (centres unmarked) [methyl jasmonate], the “restoration of male fertility in the F2 generation” value (“restoration … in the F2 generation” below) in assay [1] and in assay [2] was “sufficient to restore male fertility” each time. Moreover, the “restoration of male fertility” value in assay [1] (homozygous mutants, 200 μM (0.2 mM) aqueous solution plus 0.025% Zipper surfactant sprayed on young flower buds, 5 times per week for 3 weeks) is given as “sufficient to restore male fertility”; in assay [3], “could be restored”. For the same molecule, the “seed production through selfing” value was “has produced seeds through selfing” in assay [1] (homozygous mutants) and “produced seeds in a subset of their flowers” in assay [1] (homozygous mutants, listed as MeJA). Also, the results for the “flower colour of flowers developed from treated buds” value in assay [2] and in assay [2] (listed as MeJA) were “Its colour has changed to blue” and “developed into blue flowers”, respectively. Further, the “male fertility (functional pollen, seed set through self-pollination)” value in assay [2] was “it has become male-fertile”; in assay [2] (listed as MeJA), “produced viable, functional pollen and were able to set seed through self-pollination; also recorded: could be overcome”. In addition, the “effect of other application methods than spraying” value in assay [2] (solution painted onto the surface of young flower buds with a fine brush) is given as “comparable effects”.
For `CC/C=C\C[C@H]1C(=O)CC[C@@H]1CC(=O)O` [jasmonic acid, (3R,7S)-jasmonic acid], the “restoration … in the F2 generation” value in assay [1] is given as “sufficient to restore male fertility”. Further, in assay [2], the “restoration … in the F2 generation” value was “sufficient to restore male fertility” and the “male fertility (functional pollen, seed set through self-pollination)” value is reported as “had the same effect”.
